Measured values as given in patent publication EP3807241B1, “IMPROVEMENTS IN OR RELATING TO ORGANIC COMPOUNDS” (Givaudan SA, priority 2018, dated 2019).
Like-named read-outs stand apart in the source and are kept apart here. Values belong to the compound of their own block, whether it stands above or below them.

How the values were obtained:
[1] = test system: plated rat hepatocytes; format: in vitro ADME
Protocol: Short-term monolayer cultures of cryopreserved primary hepatocytes from rat were prepared in collagen coated 48-well plates to perform metabolic assays in a kinetic manner for up to 22 h.
Palatable primary male rat hepatocytes (Sprague-Dawley, Grade P pooled cryopreserved hepatocytes, for plated assays) and supplements were purchased from Biopredic International (Saint Grégoire, France). WEM (with Phenol Red, with GlutaMAX™, without HEPES) was purchased from Gibco™ (ThermoFisherScientific).
Cells were thawed following the supplier's protocol and seeded at a density of 450,000 cells/mL in 0.25 mL seeding medium (WEM supplemented with fetal bovine serum, Dexamethasone, penicillin-streptomycin, insulin, GlutaMAX™ and HEPES) using 48-well plates which were coated with collagen (Collagen I Rat Protein, Tail; Gibco™, ThermoFisherScientific) and incubated for 4-5 h to facilitate attachment. Then, the medium was changed to culturing medium (WEM supplemented with penicillin, streptomycin, insulin, hydrocortisone without serum) to prevent detachment of cells.
Test chemicals were dissolved in methanol (80-90% methanol) and directly added with the culture medium (0.8-0.9% final methanol concentration). For structure-activity studies, final concentration of test chemicals was 50 µM or 5 µM. Cells were incubated for 0.5-22 h in the presence of test chemicals. To stop the reactions, the culture medium was removed and 0.5 M citric acid (pH 2.0; 60 µL) and cold acetonitrile (60 µL) containing 2 µM decanoyl CoA as internal standard were added to each well. The attached cells were removed and disrupted by scraping the well with a pipette tip and by pipetting up and down several times, transferred in 1.5 mL tubes and frozen at -80°C. The cell lysates were defrozen, centrifuged (21,000 x g, 5 min, RT), and the supernatant was diluted with 1.36 mL Tris-buffer (4 mM) containing KCI (6 mM), MgCl2 (0.3 mM) and n-heptadecanoyl CoA as internal standard (0.2 µM). Samples were neutralized by addition of NaOH (42 µL of 1 M NaOH) and loaded onto solid phase extraction cartridges (OASIS HLB µEIution plate, Waters). Columns were washed with 200 µL of ammonium solution (1 M), and samples eluted sequentially with 50 µL acetonitrile and 50 µL water.
CoA conjugates were analyzed with high resolution LC-MS (LC-HRMS) on a Dionex UltiMate 3000 RS HPLC system coupled to a Q-Exactive orbitrap mass spectrometer (Thermo Scientific, Reinach, Switzerland) with electrospray ionization (ESI) in both positive and negative ionization mode. For liquid chromatography separation an Agilent Zorbax 300Extend-C18 column with dimensions 2.1 mm x 50 mm and particle size of 3.5 µm with a 2.1 mm x 10 mm pre-column of the same material was used. The flow rate was 0.4 mL/min. Eluent A consists of water containing 0.0025% ammonia (pH around 9.8) and eluent B consists of acetonitrile containing 0.0025% ammonia. A linear gradient was run from 95% eluent A (hold for 1 min) to 100% eluent B within 6 min (hold for 1 min), back to 95% eluent A within 0.5 min followed by 1.5 min equilibration time. The injection volume of the sample was 10 µl. The mass resolution of the HR-MS spectra was set to 70,000. The mass accuracy was <5ppm. […] Ion source parameters adjusted were as follows: sheath gas flow (30 arbitrary unit), auxiliary gas flow (10 arbitrary unit), capillary temperature (270°C), and source voltage (4kV in positive mode, -3kV in negative mode). Fragmentation was obtained from dissociation in an octopole collision cell using higher energy collision dissociation settings at 35 and 45 (arbitrary unit). The mass scan range was set from 120 to 1800 m/z.
Calibration standards were prepared with CoA, acetyl-CoA, benzoyl-CoA, TBBA-CoA, and octanoyl-CoA to determine the concentrations of CoA conjugates. Decanoyl-CoA and heptadecanoyl-CoA were used as internal standards. The limit of detection with this method is 0.005 µM for CoA conjugates. […]

[2] = GC odor threshold
[3] = test system: guinea-pigs; conditions: guinea pig, in vivo; cited from earlier work
[4] = test system: reproductive organs of male dogs; conditions: dog, in vivo; cited from earlier work
[5] = test system: mice; conditions: mouse, in vivo; cited from earlier work
[6] = test system: primates; conditions: cited from earlier work
[7] = test system: reproductive organs of male rats; conditions: rat, in vivo; cited from earlier work
[8] = test system: primary rat hepatocytes; conditions: TBBA treatment; cited from earlier work
[9] = male, Sprague-Dawley, rat, 0.5 h, 50 µM
[10] = male, Sprague-Dawley, rat, 4 h, 50 µM
[11] = male, Sprague-Dawley, rat, 22 h, 50 µM

- CoA Conjugates Detected in Plated Rat Hepatocytes (Total Amount) [1, 9]: 86 % of TBBA-CoA ex BMHCA
- CoA conjugate detected: 3-(4-isobutyl-2-methylcyclohexyl)propanoic acid-CoA [1, 9]: 3 % of TBBA-CoA ex BMHCA
- CoA conjugate detected: 3-(4-isobutyl-6-methylcyclohex-3-en-1-yl)propanoic acid [1, 9]: 58 % of TBBA-CoA ex BMHCA
- CoA conjugate detected: 3-(4-isobutyl-6-methylcyclohexa-1,3-dien-1-yl)propanoic acid-CoA [1, 9]: 21 % of TBBA-CoA ex BMHCA
- CoA conjugate detected: 4-isobutyl-6-methylcyclohex-3-ene-1-carboxylic acid-CoA [1, 9]: 4 % of TBBA-CoA ex BMHCA
- CoA Conjugates Detected in Plated Rat Hepatocytes (Total Amount) [1, 10]: 31 % of TBBA-CoA ex BMHCA
- CoA conjugate detected: 3-(4-isobutyl-6-methylcyclohex-3-en-1-yl)propanoic acid [1, 10]: 19 % of TBBA-CoA ex BMHCA
- CoA conjugate detected: 3-(4-isobutyl-6-methylcyclohexa-1,3-dien-1-yl)propanoic acid-CoA [1, 10]: 8 % of TBBA-CoA ex BMHCA
- CoA conjugate detected: 4-isobutyl-6-methylcyclohex-3-ene-1-carboxylic acid-CoA [1, 10]: 4 % of TBBA-CoA ex BMHCA
SMILES: CC(C)CC1=CCC(CCC=O)C(C)C1 (stereo not drawn) [3-(4-isobutyl-6-methylcyclohex-3-en-1-yl)propanal]

- main conjugate detected ([1]; male, Sprague-Dawley, rat, 50 µM): 4-isobutylbenzoic acid-CoA
- CoA Conjugates Detected in Plated Rat Hepatocytes (Total Amount) [1, 9]: 74 % of TBBA-CoA ex BMHCA
- CoA conjugate detected: 3-(4-isobutylcyclohex-3-en-1-yl)propanoic acid-CoA [1, 9]: 19 % of TBBA-CoA ex BMHCA
- CoA conjugate detected: 3-(4-isobutylcyclohexa-1,3-dien-1-yl)propanoic acid-CoA [1, 9]: 12 % of TBBA-CoA ex BMHCA
- CoA conjugate detected: 4-isobutylcyclohex-3-ene-1-carboxylic acid-CoA [1, 9]: 23 % of TBBA-CoA ex BMHCA
- CoA conjugate detected: 4-isobutylcyclohexa-1,3-diene-1-carboxylic acid-CoA [1, 9]: 8 % of TBBA-CoA ex BMHCA
- CoA Conjugates Detected in Plated Rat Hepatocytes (Total Amount) [1, 10]: 45 % of TBBA-CoA ex BMHCA
- CoA conjugate detected: 3-(4-isobutylcyclohex-3-en-1-yl)propanoic acid-CoA [1, 10]: 2 % of TBBA-CoA ex BMHCA
- CoA conjugate detected: 3-(4-isobutylcyclohexa-1,3-dien-1-yl)propanoic acid-CoA [1, 10]: 2 % of TBBA-CoA ex BMHCA
- CoA conjugate detected: 4-isobutylcyclohex-3-ene-1-carboxylic acid-CoA [1, 10]: 10 % of TBBA-CoA ex BMHCA
- CoA conjugate detected: 4-isobutylcyclohexa-1,3-diene-1-carboxylic acid-CoA [1, 10]: 8 % of TBBA-CoA ex BMHCA
- CoA Conjugates Detected in Plated Rat Hepatocytes (Total Amount) [1, 11]: 29 % of TBBA-CoA ex BMHCA
- CoA conjugate detected: 3-(4-isobutylcyclohex-3-en-1-yl)propanoic acid-CoA [1, 11]: 3 % of TBBA-CoA ex BMHCA
- CoA conjugate detected: 4-isobutylcyclohex-3-ene-1-carboxylic acid-CoA [1, 11]: 5 % of TBBA-CoA ex BMHCA
SMILES: CC(C)CC1=CCC(CCC=O)CC1 (stereo not drawn) [3-(4-isobutylcyclohex-3-en-1-yl)propanal]

More lines, now with the values behind:

SMILES: CC1=C(CCC=O)CCC(C(C)C)C1 (stereo not drawn) [3-(4-isopropyl-2-methylcyclo-hex-1-en-1-yl)propanal]
- GC Odor Threshold [2]: 0.022 ng/L
- accumulation of CoA-conjugates (in words) [1]: significantly reduced accumulation
- CoA Conjugates Detected in Plated Rat Hepatocytes (Total Amount) [1, 9]: 62 % of TBBA-CoA ex BMHCA
- CoA conjugate detected: 3-(4-isopropyl-2-methylcyclohex-1-en-1-yl)propanoic acid-CoA [1, 9]: 22 % of TBBA-CoA ex BMHCA
- CoA conjugate detected: 3-(4-isopropyl-2-methylcyclohexa-1,5-dien-1-yl)propanoic acid-CoA [1, 9]: 34 % of TBBA-CoA ex BMHCA
- CoA conjugate detected: 3-(4-isopropyl-2-methylphenyl)propanoic acid-CoA [1, 9]: 2 % of TBBA-CoA ex BMHCA
- CoA conjugate detected: 4-isopropyl-2-methylcyclohex-1-ene-1-carboxylic acid-CoA [1, 9]: 4 % of TBBA-CoA ex BMHCA
- CoA Conjugates Detected in Plated Rat Hepatocytes (Total Amount) [1, 10]: 28 % of TBBA-CoA ex BMHCA
- CoA conjugate detected: 3-(4-isopropyl-2-methylcyclohex-1-en-1-yl)propanoic acid-CoA [1, 10]: 10 % of TBBA-CoA ex BMHCA
- CoA conjugate detected: 3-(4-isopropyl-2-methylcyclohexa-1,5-dien-1-yl)propanoic acid-CoA [1, 10]: 13 % of TBBA-CoA ex BMHCA
- CoA conjugate detected: 3-(4-isopropyl-2-methylphenyl)propanoic acid-CoA [1, 10]: 2 % of TBBA-CoA ex BMHCA
- CoA conjugate detected: 4-isopropyl-2-methylcyclohex-1-ene-1-carboxylic acid-CoA [1, 10]: 3 % of TBBA-CoA ex BMHCA
- CoA Conjugates Detected in Plated Rat Hepatocytes (Total Amount) [1, 11]: 9 % of TBBA-CoA ex BMHCA
- CoA conjugate detected: 3-(4-isopropyl-2-methylcyclohex-1-en-1-yl)propanoic acid-CoA [1, 11]: 3 % of TBBA-CoA ex BMHCA
- CoA conjugate detected: 3-(4-isopropyl-2-methylcyclohexa-1,5-dien-1-yl)propanoic acid-CoA [1, 11]: 3 % of TBBA-CoA ex BMHCA
- CoA conjugate detected: 4-isopropyl-2-methylcyclohex-1-ene-1-carboxylic acid-CoA [1, 11]: 3 % of TBBA-CoA ex BMHCA

SMILES: CC(C)C1CC=C(CCC=O)CC1 (stereo not drawn) [3-(4-isopropylcyclohex-1-en-1-yl)propanal]
- accumulation of CoA-conjugates (in words) [1]: substantial accumulation
- CoA Conjugates Detected in Plated Rat Hepatocytes (Total Amount) [1, 9]: 124 % of TBBA-CoA ex BMHCA
- CoA conjugate detected: 3-(4-isopropylcyclohex-1-en-1-yl)propanoic acid-CoA [1, 9]: 53 % of TBBA-CoA ex BMHCA
- CoA conjugate detected: 3-(4-isopropylcyclohexa-1 ,5-dien-1-yl)propanoic acid-CoA [1, 9]: 36 % of TBBA-CoA ex BMHCA
- CoA conjugate detected: 4-isopropylcyclohex-1-ene-1-carboxylic acid-CoA [1, 9]: 23 % of TBBA-CoA ex BMHCA
- CoA conjugate detected: 4-isopropylcyclohexane-1-carboxylic acid-CoA [1, 9]: 12 % of TBBA-CoA ex BMHCA
- CoA Conjugates Detected in Plated Rat Hepatocytes (Total Amount) [1, 10]: 79 % of TBBA-CoA ex BMHCA
- CoA conjugate detected: 3-(4-isopropylcyclohex-1-en-1-yl)propanoic acid-CoA [1, 10]: 26 % of TBBA-CoA ex BMHCA
- CoA conjugate detected: 3-(4-isopropylcyclohexa-1 ,5-dien-1-yl)propanoic acid-CoA [1, 10]: 17 % of TBBA-CoA ex BMHCA
- CoA conjugate detected: 4-isopropylcyclohex-1-ene-1-carboxylic acid-CoA [1, 10]: 26 % of TBBA-CoA ex BMHCA
- CoA conjugate detected: 4-isopropylcyclohexane-1-carboxylic acid-CoA [1, 10]: 10 % of TBBA-CoA ex BMHCA
- CoA Conjugates Detected in Plated Rat Hepatocytes (Total Amount) [1, 11]: 31 % of TBBA-CoA ex BMHCA
- CoA conjugate detected: 4-isopropylcyclohex-1-ene-1-carboxylic acid-CoA [1, 11]: 24 % of TBBA-CoA ex BMHCA
- CoA conjugate detected: 4-isopropylcyclohexane-1-carboxylic acid-CoA [1, 11]: 7 % of TBBA-CoA ex BMHCA

SMILES: CC(C=O)Cc1ccc(C(C)(C)C)cc1 (stereo not drawn) [BMHCA, 3-(4-tert-butylphenyl)-2-methylpropanal]
- toxic effects [3]: No effects
- toxic effects on the reproductive organs [4]: toxic effects
- toxic effects [5]: No effects
- CoA Conjugates Detected in Plated Rat Hepatocytes (Total Amount) [1, 9]: 100 % of TBBA-CoA ex BMHCA
- CoA Conjugates Detected in Plated Rat Hepatocytes (Total Amount) [1, 10]: 100 % of TBBA-CoA ex BMHCA
- CoA Conjugates Detected in Plated Rat Hepatocytes (Total Amount) [1, 11]: 100 % of TBBA-CoA ex BMHCA
- toxic effects [6]: No effects
- toxic effects on the reproductive organs [7]: toxic effects

SMILES: CC(C)(C)c1ccc(C(=O)O)cc1 [TBBA, 4-(tert-butyl)benzoic acid]
- CoA, acetyl-CoA and citrate levels [8]: decreased
- p-tert-butyl-benzoyl-CoA accumulates to stable levels within ([1]; male, Sprague-Dawley, rat): 0.5 to 4 h
